Results from ChEMBL document CHEMBL4706557, “Synthesis and in vitro and in vivo biological evaluation of novel derivatives of flexicaulin A as antiproliferative agents” (Eur J Med Chem, 2020).
Calls of active or inactive are those of the source. The rule behind the calls is not given here.

Experiments:
ECa-109 cell line [1] = experiment: Induction of apoptosis in human EC109 cells assessed as increase in cleaved caspase 3 expression at 3 uM incubated for 24 hrs in presence of N-acetylcysteine by Western blot analysis; type: functional, cell-based
ECa-109 cell line [2] = experiment: Antiproliferative activity against human EC109 cells assessed as inhibition of cell growth incubated for 72 hrs by SRB assay; type: functional, cell-based; settings: ECa-109, 72 h
GES1 [3] = experiment: Cytotoxicity against human GES1 cells assessed as reduction in survival rate at 0 to 8 uM by SRB assay; type: cell-based; settings: ges1, 8 µM, TDE = time-dependent effect, dose 0-8 µM
HUVEC = experiment: Cytotoxicity against HUVEC assessed as inhibition of cell growth incubated for 72 hrs by SRB assay; type: cell-based; settings: Homo sapiens
ECa-109 cell line [4] = experiment: Induction of apoptosis in human EC-109 cells xenografted in BALB/c mouse assessed as increase in cytochrome C in tumor tissue at 40 mg/kg, ip QD for 14 days by Western blotting analysis relative to control; type: functional, organism-based; settings: time 14.0 day
ECa-109 cell line [5] = experiment: Induction of apoptosis in human EC109 cells assessed as reduction in Bcl-2 protein expression incubated for 24 hrs by Western blot analysis; type: functional, cell-based
ECa-109 cell line [6] = experiment: Induction of apoptosis in human EC109 cells assessed as increase in intracellular ROS level at 3 uM preincubated with N-acetylcysteine for 4 hrs followed by compound addition and incubated for 24 hrs by DCFH-DA staining based flow cytometry analysis (reference value: 0.6 %); type: functional
MGC-803 = experiment: Antiproliferative activity against human MGC-803 cells assessed as inhibition of cell growth incubated for 72 hrs by SRB assay; type: functional, cell-based; settings: MGC-803, 72 h
[7] = Toxicity in BALB/c mouse assessed as abnormalities in liver at 20 to 40 mg/kg, ip administered once daily for 14 days by HE staining based assay; type: organism-based; settings: in vivo, 336 h, dose 20-40 mg/kg, time 14 day
ECa-109 cell line [8] = experiment: Induction of apoptosis in human EC109 cells assessed as change in phosphorylated JNK expression at 3 uM incubated for 24 hrs in presence of N-acetylcysteine by Western blot analysis; type: functional, cell-based
ECa-109 cell line [9] = experiment: Induction of apoptosis in human EC-109 cells assessed as apoptotic rate at 1.5 uM after 48 hrs by Annexin V-FITC/propidium iodide staining based flow cytometry (reference value: 3.2 %); type: functional
ECa-109 cell line [10] = experiment: Antiproliferative activity against human EC109 cells assessed as survival rate preincubated with N-acetylcysteine for 4 hrs followed by compound addition and measured after 24 hrs by SRB assay; type: functional
[11] = Toxicity in BALB/c mouse assessed as effect on red pulp and white pulp distribution in spleen at 20 to 40 mg/kg, ip administered once daily for 14 days by HE staining based assay; type: organism-based; settings: in vivo, 336 h, dose 20-40 mg/kg, time 14 day
ECa-109 cell line [12] = experiment: Induction of apoptosis in human EC-109 cells xenografted in BALB/c mouse assessed as change in Bax expression in tumor tissue at 20 mg/kg, ip QD for 14 days by Western blotting analysis relative to control; type: functional, organism-based; settings: time 14.0 day
ECa-109 cell line [13] = experiment: Antiproliferative activity against human EC109 cells assessed as reduction in survival rate at 0 to 8 uM by SRB assay; type: functional, cell-based; settings: dose 0-8 µM, TDE = time-dependent effect
ECa-109 cell line [14] = experiment: Induction of apoptosis in human EC-109 cells assessed as apoptotic rate at 3 uM preincubated with N-acetylcysteine for 4 hrs followed by compound addition and measured after 48 hrs by Annexin V-FITC/propidium iodide staining based flow cytometry (reference value: 3.8 %); type: functional
[15] = Toxicity in BALB/c mouse assessed as MCV at 40 mg/kg, ip administered once daily for 14 days (reference value: 49.90 +/- 0.37 fL); type: organism-based; settings: in vivo, 336 h, time 14 day
[16] = Toxicity in BALB/c mouse assessed as HCT at 40 mg/kg, ip administered once daily for 14 days (reference value: 49.08 +/- 1.56 %); type: organism-based; settings: in vivo, 336 h, time 14 day
ECa-109 cell line [17] = experiment: Induction of apoptosis in human EC-109 cells xenografted in BALB/c mouse assessed as change in Bax expression in tumor tissue at 40 mg/kg, ip QD for 14 days by Western blotting analysis relative to control; type: functional, organism-based; settings: time 14.0 day
ECa-109 cell line [18] = experiment: Induction of morphological changes in human EC109 cells assessed as decrease in number of cells in presence of N-acetylcysteine; type: functional, cell-based
ECa-109 cell line [19] = experiment: Induction of apoptosis in human EC109 cells assessed as increase in cleaved caspase 7 expression after 24 hrs by Western blot analysis; type: functional, cell-based
ECa-109 cell line [20] = experiment: Induction of apoptosis in human EC-109 cells assessed as apoptotic rate at 3 uM after 24 hrs by Annexin V-FITC/propidium iodide staining based flow cytometry (reference value: 5.7 %); type: functional
[21] = Toxicity in BALB/c mouse assessed as MCV at 20 mg/kg, ip administered once daily for 14 days (reference value: 49.90 +/- 0.37 fL); type: organism-based; settings: in vivo, 336 h, time 14 day
ECa-109 cell line [22] = experiment: Induction of apoptosis in human EC-109 cells xenografted in BALB/c mouse assessed as increase in Bax/Bcl-2 ratio in tumor tissue at 20 to 40 mg/kg, ip QD for 14 days by Western blotting analysis relative to control; type: functional, organism-based; settings: dose 20-40 mg/kg, time 14.0 day
ECa-109 cell line [23] = experiment: Induction of apoptosis in human EC-109 cells xenografted in BALB/c mouse assessed as increase in phosphorylated MKK4 in tumor tissue at 20 to 40 mg/kg, ip QD for 14 days by Western blotting analysis; type: functional, organism-based; settings: dose 20-40 mg/kg, time 14.0 day
ECa-109 cell line [24] = experiment: Induction of apoptosis in human EC109 cells assessed as increase in intracellular ROS level at 3 uM incubated for 24 hrs by DCFH-DA staining based flow cytometry analysis (reference value: 0.6 %); type: functional
ECa-109 cell line [25] = experiment: Induction of apoptosis in human EC109 cells assessed as change in Bax expression at 0.75 to 3 uM after 24 hrs by Western blot analysis; type: functional, cell-based; settings: dose 0.75-3 µM
GES1 [26] = experiment: Cytotoxicity against human GES1 cells assessed as reduction in survival rate after 24 to 72 hrs by SRB assay; type: cell-based; settings: time 24-72 hrs
ECa-109 cell line [27] = experiment: Induction of apoptosis in human EC-109 cells assessed as apoptotic rate at 3 uM after 24 hrs by Annexin V-FITC/propidium iodide staining based flow cytometry (reference value: 5.3 %); type: functional
ECa-109 cell line [28] = experiment: Induction of apoptosis in human EC-109 cells assessed as apoptotic rate at 3 uM after 48 hrs by Annexin V-FITC/propidium iodide staining based flow cytometry (reference value: 3.2 %); type: functional
[29] = Toxicity in BALB/c mouse assessed as PLT at 20 mg/kg, ip administered once daily for 14 days (reference value: 788.60 +/- 71.35 10^9/L); type: organism-based; settings: in vivo, 336 h, time 14 day
[30] = Toxicity in BALB/c mouse assessed as abnormalities in lungs at 20 to 40 mg/kg, ip administered once daily for 14 days by HE staining based assay; type: organism-based; settings: in vivo, 336 h, dose 20-40 mg/kg, time 14 day
ECa-109 cell line [31] = experiment: Antiproliferative activity against human EC109 cells assessed as inhibition of cell growth at 0.06 to 4 uM preincubated with N-acetylcysteine for 4 hrs followed by compound addition and measured after 24 hrs by SRB assay; type: functional, cell-based; settings: dose 0.06-4 µM
[32] = Toxicity in BALB/c mouse assessed as HGB at 20 mg/kg, ip administered once daily for 14 days (reference value: 153.20 +/- 3.87 g/L); type: organism-based; settings: in vivo, 336 h, time 14 day

- IC50 (MGC-803): 200 nM
SMILES: C=C1C(=O)[C@@]23[C@H](O)C[C@@H]4C(C)(C)CCC[C@@]4(COC(C)=O)[C@@H]2[C@@H](O)C[C@H]1[C@H]3OC(=O)c1ccc(CCl)cc1
- Activity (ECa-109 cell line [1]): inactive
- IC50 (ECa-109 cell line [2]): 130 nM
- inhibition (INH) (GES1 [3]): Tde
- IC50 (HUVEC): 490 nM
- Activity (ECa-109 cell line [4]): Active
- Activity (ECa-109 cell line [5]): Dose-dependent effect
- Activity (ECa-109 cell line [6]): 0.1%
- Activity [7]: Non-Toxic
- Activity (ECa-109 cell line [8]): inactive
- Activity (ECa-109 cell line [9]): 93.1%
- Activity (ECa-109 cell line [10]): 90%
- Activity [11]: Non-Toxic
- Activity (ECa-109 cell line [12]): inactive
- inhibition (ECa-109 cell line [13]): Tde
- Activity (ECa-109 cell line [14]): 4.8%
- Activity [15]: 49.36 fL
- Activity [16]: 46.26%
- Activity (ECa-109 cell line [17]): Active
- Activity (ECa-109 cell line [18]): inactive
- Activity (ECa-109 cell line [19]): Dose-dependent effect
- Activity (ECa-109 cell line [20]): 33.7%
- Activity [21]: 49.5 fL
- Activity (ECa-109 cell line [22]): Active
- Activity (ECa-109 cell line [23]): Active
- Activity (ECa-109 cell line [24]): 47%
- Activity (ECa-109 cell line [25]): inactive
- inhibition (INH) (GES1 [26]): Dose-dependent effect
- Activity (ECa-109 cell line [27]): 45.4%
- Activity (ECa-109 cell line [28]): 97%
- Activity [29]: 754.8 10^9/L
- Activity [30]: Non-Toxic
- inhibition (ECa-109 cell line [31]): inactive
- Activity [32]: 147 g/L
